Results reported in PubChem BioAssay AID977613 (Broad Institute, 2014).
Activity calls are given as the source filed them. No rule for the calls is given here.

System: Broad 7084-01 inhibitor HTS, set 2
Test: single-concentration hits, screen 7084 set 2 (AID 977613);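 also: host cells are infected with parasite promastigotes that become internalized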

SMILES | active concentration
CN(C)C(=O)[C@H]1[C@H](CO)[C@H]2Cn3c(ccc(-c4cncnc4)c3=O)[C@H]2N1Cc1cc(F)ccc1F | > 10 µM (inactive)
CC(=O)N1CC[C@@H]2[C@H](CO)Nc3ccc(C#Cc4cccnc4)cc3[C@@H]21 | > 10 µM (inactive)
O=C(NC1CCCCC1)N1CC2(C1)[C@H](c1ccccc1)[C@H](CO)N2CC1CCCC1 | > 10 µM (inactive)
CCCNC(=O)N1CC(=O)N2[C@@H](CO)[C@@H](c3ccc(C#CCC4CCCC4)cc3)[C@@H]2C1 | > 10 µM (inactive)
C/C=C/c1ccccc1[C@H]1[C@@H](C#N)N(C(=O)NC2CCCCC2)[C@H]1CO | > 10 µM (inactive)
COc1ccccc1CNC(=O)C[C@@H]1CC[C@@H]2[C@H](COC[C@H](O)CN2C(=O)Nc2ccccc2)O1 | > 10 µM (inactive)
COc1ccccc1-c1ccccc1[C@@H]1[C@H](C#N)N(C(=O)C2CCOCC2)[C@H]1CO | > 10 µM (inactive)
O=C(C[C@@H]1CC[C@H]2[C@@H](COC[C@@H](O)CN2C(=O)Cc2ccccc2)O1)NC1CCCC1 | > 10 µM (inactive)
O=S(=O)(c1ccc(F)cc1)N1CCCCN2[C@@H](CO)[C@@H](c3ccc(-c4cncnc4)cc3)[C@@H]2C1 | > 10 µM (inactive)
OC[C@@H]1[C@@H](c2ccccc2)C2(CN(Cc3nccs3)C2)N1CC1CCOCC1 | > 10 µM (inactive)
O=S(=O)(c1ccc(F)cc1)N1C[C@@H]2[C@H](c3ccccc31)[C@H](CO)N2Cc1ccc2c(c1)OCO2 | > 10 µM (inactive)
C/C=C/c1ccc([C@H]2[C@H]3CN(S(=O)(=O)c4ccc(OC)cc4)CCCCN3[C@H]2CO)cc1 | > 10 µM (inactive)
C/C=C/c1ccc([C@H]2[C@@H](CO)N(CC3CCCC3)C23CN(C(=O)CC)C3)cc1 | > 10 µM (inactive)
O=C(C[C@H]1CC[C@@H]2[C@H](COC[C@H](O)CN2C(=O)c2ccccc2F)O1)NCc1ccccc1 | > 10 µM (inactive)
COc1cccc(NC(=O)N2C[C@@H](O)COC[C@H]3O[C@@H](CC(=O)NC4CCC4)CC[C@@H]32)c1 | > 10 µM (inactive)
CN1C[C@@H]2[C@H](c3ccccc31)[C@H](CO)N2Cc1ccccc1Cl | > 10 µM (inactive)
CN1C(=O)c2cc(NC(=O)c3ccc(F)c(F)c3)ccc2OC[C@H]2O[C@@H](CC(=O)N[C@@H]3CCN(Cc4ccccc4)C3)CC[C@H]21 | > 10 µM (inactive)
O=C(C[C@@H]1CC[C@@H]2[C@H](COC[C@H](O)CN2CC2CC2)O1)NCC1CC1 | > 10 µM (inactive)
O=C(C1CCCC1)N1CC2(C1)[C@H](c1ccccc1)[C@@H](CO)N2CC1CC1 | > 10 µM (inactive)
O=C(C1CCCCC1)N1CC(=O)N2[C@H](CO)[C@@H](c3ccc(-c4ccccc4F)cc3)[C@@H]2C1 | > 10 µM (inactive)
COc1ccccc1NC(=O)N1C[C@@H]2[C@H](c3ccccc31)[C@@H](CO)N2C(C)=O | > 10 µM (inactive)
O=C(CC(F)(F)F)N1C[C@@H]2[C@H](c3ccccc31)[C@H](CO)N2CC1CCOCC1 | > 10 µM (inactive)
CS(=O)(=O)N1C[C@@H](O)COC[C@@H]2O[C@H](CC(=O)NCc3ccc(-c4ccccc4)cc3)CC[C@H]21 | > 10 µM (inactive)
CCCC#Cc1ccc([C@@H]2[C@H](CO)N3C(=O)CN(S(=O)(=O)c4ccccc4C)C[C@@H]23)cc1 | > 10 µM (inactive)

SMILES | active concentration
O=C(C1CCOCC1)N1C[C@H]2[C@@H](c3ccccc31)[C@@H](CO)N2C(=O)Cc1ccccc1 | > 10 µM (inactive)
C/C=C/c1ccc([C@@H]2[C@H](CO)N(C(=O)c3cnccn3)C23CN(C(C)=O)C3)cc1 | > 10 µM (inactive)
Cc1ccccc1-c1ccccc1[C@@H]1[C@@H](C#N)N(C(=O)c2ccccc2)[C@H]1CO | > 10 µM (inactive)
CC=Cc1ccc2n(c1=O)C[C@@H]1[C@@H](CO)[C@H](C(=O)N3CCc4ccccc4C3)N(C(=O)C3CC3)[C@H]21 (mixture of isomers) | > 10 µM (inactive)
CCCNC(=O)N1CC2(CCN(C(=O)c3cccc(F)c3)CC2)c2c([nH]c3cc(OC)ccc23)[C@H]1CO | > 10 µM (inactive)
CS(=O)(=O)N1CC2(C1)[C@@H](c1ccccc1)[C@@H](CO)N2Cc1ccccn1 | > 10 µM (inactive)
O=C(C[C@H]1CC[C@H]2[C@@H](COC[C@@H](O)CN2Cc2ccc(Cl)cc2)O1)NCc1ccccc1Cl | > 10 µM (inactive)
O=C(C[C@@H]1CC[C@H]2[C@@H](COC[C@@H](O)CN2Cc2cc(F)cc(F)c2)O1)NC1CCC1 | > 10 µM (inactive)
O=C(C[C@H]1CC[C@H]2[C@@H](COC[C@H](O)CN2C(=O)Nc2ccc(Cl)c(Cl)c2)O1)NCc1ccc(Cl)cc1 | > 10 µM (inactive)
Cn1cnc(S(=O)(=O)N2C[C@@H](O)COC[C@H]3O[C@@H](CC(=O)NC4CCCC4)CC[C@@H]32)c1 | > 10 µM (inactive)
O=C(NC1CCCC1)N1CCCCN2[C@H](CO)[C@@H](c3ccc(-c4cccnc4)cc3)[C@@H]2C1 | > 10 µM (inactive)
CCCNC(=O)N1CC(=O)N2[C@H](C1)[C@@H](c1ccc(-c3ccc(F)cc3)cc1)[C@@H]2CO | > 10 µM (inactive)
O=C(c1ccccc1F)N1CC(=O)N2[C@@H](CO)[C@@H](c3ccc(C#Cc4ccccc4)cc3)[C@@H]2C1 | > 10 µM (inactive)
O=C(Nc1cccc(F)c1)N1CCCCN2[C@H](C1)[C@@H](c1ccc(C#Cc3cccnc3)cc1)[C@@H]2CO | > 10 µM (inactive)
OC[C@H]1[C@@H](c2ccc(-c3ccccc3F)cc2)[C@H]2CN(Cc3cncnc3)CCCCN21 | > 10 µM (inactive)
COc1ccc(-c2ccc3c(c2)[C@@H]2[C@@H](CCN2C(=O)CN2CCOCC2)[C@@H](CO)N3)cc1 | > 10 µM (inactive)
CN(C)C(=O)C[C@@H]1CC[C@@H]2[C@H](COC[C@H](O)CN2CC2CC2)O1 | > 10 µM (inactive)
CC(C)CC#Cc1ccc([C@H]2[C@H](CO)N3C(=O)CN(C(=O)c4ccccn4)C[C@@H]23)cc1 | > 10 µM (inactive)
COC(=O)C[C@H]1CC[C@@H]2[C@@H](COc3ccc(NS(=O)(=O)c4ccccc4Cl)cc3C(=O)N2C)O1 | > 10 µM (inactive)
O=C(c1ccccc1)N1CC(=O)N2[C@H](CO)[C@H](c3ccc(-c4ccccc4)cc3)[C@@H]2C1 | > 10 µM (inactive)
COc1cccc(C(=O)N2C[C@H]3[C@@H](c4ccccc42)[C@H](CO)N3Cc2ccccc2Cl)c1 | < 10 µM
Cc1ccccc1-c1ccc([C@@H]2[C@@H](CO)N3C(=O)CN(S(C)(=O)=O)C[C@H]23)cc1 | > 10 µM (inactive)
COc1ccccc1-c1ccc2n(c1=O)C[C@H]1[C@H](CO)[C@@H](C(=O)N3CCOCC3)[C@@H]2N1CC1CC1 | > 10 µM (inactive)
O=C(C[C@@H]1CC[C@H]2[C@@H](COC[C@@H](O)CN2C(=O)Nc2ccc(Cl)c(Cl)c2)O1)NCc1ccc(Cl)cc1 | > 10 µM (inactive)

SMILES | active concentration
COc1ccccc1-c1ccccc1[C@H]1[C@H](C#N)N(C(=O)CN(C)C)[C@H]1CO | > 10 µM (inactive)
CC(C)NC(=O)N1[C@H](CO)[C@H](c2ccccc2)C12CN(C(=O)Cc1cccnc1)C2 | > 10 µM (inactive)
COc1ccc2c3c(n(C)c2c1)[C@H](CO)N(C(=O)Nc1ccc(F)cc1)CC31CCN(S(=O)(=O)c2cccc(C)c2)CC1 | > 10 µM (inactive)
CC(=O)N1CC[C@H]2[C@@H]1c1cc(-c3ccc(C#N)cc3)ccc1N(C)[C@H]2CO | > 10 µM (inactive)
C/C=C/c1ccc([C@@H]2[C@@H](CO)N3C(=O)CN(S(=O)(=O)c4ccccc4)C[C@@H]23)cc1 | > 10 µM (inactive)
O=C([C@@H]1[C@@H](CO)[C@@H]2Cn3c(ccc(C4=CCCCC4)c3=O)[C@H]1N2Cc1nccs1)N1CCCCC1 | > 10 µM (inactive)
COc1ccccc1C#Cc1ccc2c(c1)[C@@H]1[C@@H](CCN1C(C)=O)[C@@H](CO)N2C | > 10 µM (inactive)
O=C(C1CC1)N1CC2(C1)[C@H](c1ccccc1)[C@@H](CO)N2Cc1nccs1 | > 10 µM (inactive)
O=C(c1ccccn1)N1CC[C@@H]2[C@@H](CO)Nc3ccc(Br)cc3[C@@H]21 | > 10 µM (inactive)
CN1C(=O)c2cc(NS(C)(=O)=O)ccc2OC[C@@H]2O[C@@H](CC(=O)NC3CCCCC3)CC[C@H]21 | > 10 µM (inactive)
O=C(C[C@@H]1CC[C@H]2[C@@H](COC[C@H](O)CN2Cc2ccccc2)O1)NCCc1ccccc1 | > 10 µM (inactive)
O=C1CN(S(=O)(=O)Cc2ccccc2)C[C@@H]2[C@H](c3ccc(C#Cc4ccccc4)cc3)[C@@H](CO)N12 | > 10 µM (inactive)
CC(=O)N1[C@@H](CO)[C@@H](c2ccc(C3=CCCC3)cc2)C12CN(C(=O)NC(C)C)C2 | > 10 µM (inactive)
O=C(C1CCC1)N1CC2(C1)[C@@H](c1ccccc1)[C@@H](CO)N2C(=O)c1ccccn1 | < 10 µM
CCC(=O)N1[C@H](CO)[C@H]2c3ccccc3N(S(=O)(=O)c3ccccc3C)C[C@H]21 | > 10 µM (inactive)
OC[C@H]1[C@H]2c3ccccc3NC[C@H]2N1Cc1ccccc1Cl | > 10 µM (inactive)
N#C[C@@H]1[C@H](c2ccccc2C2=CCCC2)[C@@H](CO)N1C(=O)CN1CCOCC1 | > 10 µM (inactive)
CN(C)C(=O)C[C@@H]1CC[C@H]2[C@@H](COC[C@@H](O)CN2CC2CC2)O1 | > 10 µM (inactive)
Cn1cnc(CCNC(=O)C[C@H]2CC[C@H]3[C@@H](COC[C@H](O)CN3C(=O)C3CC3)O2)c1 | > 10 µM (inactive)
COc1ccc2c3c([nH]c2c1)[C@H](CO)N(C(=O)C1CCOCC1)CC31CN(C(=O)NC(C)C)C1 | > 10 µM (inactive)
CCCNC(=O)N1CC2(C1)[C@H](c1ccccc1)[C@@H](CO)N2Cc1cccc(Cl)c1 | > 10 µM (inactive)
N#C[C@@H]1[C@H](c2ccccc2-c2ccc(F)cc2)[C@H](CO)N1C(=O)Cc1cccnc1 | > 10 µM (inactive)
O=C(C1CCCCC1)N1C[C@H]2[C@@H](c3ccccc31)[C@H](CO)N2C(=O)Cc1ccccn1 | > 10 µM (inactive)
